pIC50: −log10 of the molar value.

The experiment addresses T1, Kinesin-like protein KIF18A (Homo sapiens, UniProt Q8NI77).
T1 sequence (Q8NI77 whole entry): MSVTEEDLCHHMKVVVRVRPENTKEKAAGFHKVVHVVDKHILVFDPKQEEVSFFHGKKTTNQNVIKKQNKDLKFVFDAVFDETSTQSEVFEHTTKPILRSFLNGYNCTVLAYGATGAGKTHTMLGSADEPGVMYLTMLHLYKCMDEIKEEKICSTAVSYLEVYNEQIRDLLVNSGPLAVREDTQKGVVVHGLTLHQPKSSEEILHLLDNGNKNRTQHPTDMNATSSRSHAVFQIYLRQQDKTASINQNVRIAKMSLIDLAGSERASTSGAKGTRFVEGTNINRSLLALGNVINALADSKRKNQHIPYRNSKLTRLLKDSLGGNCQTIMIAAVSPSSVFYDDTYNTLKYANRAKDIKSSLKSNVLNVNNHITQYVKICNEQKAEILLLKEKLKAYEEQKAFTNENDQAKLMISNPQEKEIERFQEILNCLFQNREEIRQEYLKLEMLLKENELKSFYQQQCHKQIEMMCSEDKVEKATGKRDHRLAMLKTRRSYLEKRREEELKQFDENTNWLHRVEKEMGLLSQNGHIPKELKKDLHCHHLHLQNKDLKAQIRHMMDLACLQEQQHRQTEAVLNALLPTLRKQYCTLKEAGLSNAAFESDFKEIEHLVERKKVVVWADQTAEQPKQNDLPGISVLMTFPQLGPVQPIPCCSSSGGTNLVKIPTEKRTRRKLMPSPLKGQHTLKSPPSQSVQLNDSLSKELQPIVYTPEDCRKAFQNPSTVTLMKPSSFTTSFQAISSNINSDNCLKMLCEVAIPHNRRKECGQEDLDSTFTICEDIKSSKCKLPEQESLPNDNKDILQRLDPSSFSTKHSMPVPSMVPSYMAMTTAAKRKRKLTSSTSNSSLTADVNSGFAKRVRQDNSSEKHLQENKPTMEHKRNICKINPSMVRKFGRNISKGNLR
The experiment can be described thus: Inhibition of recombinant His-tagged human KIF18A (1 to 467 residues) expressed in baculovirus expression system assessed as inhibition of microtubule-stimulated ATPase activity preincubated for 15 mins followed by ATP addition and further incubated for 15 mins and measured after 40 mins by ADP-Glo reagent based assay. (ADP-Glo turns the ADP formed in a reaction into a luminescent signal.)
One may read the pIC50 as the negative decadic logarithm of the IC50, by convention in mol/L. As for `Cc1cc(NC(=O)c2ccc(NS(=O)(=O)C[C@H](C)O)cc2N2CCC3(CC2)CC3)nc(N2CCO[C@H](C)C2)n1`, the pIC50 was 6.82. As for `Cc1cc(NC(=O)c2ccc(S(=O)(=O)[C@@H](C)CO)cc2N2CCC3(CC2)CC3)nc(N2CCC(F)(F)CC2)n1`, the figure is 7.24; as for `Cc1cc(NC(=O)c2ccc(S(=O)(=O)[C@H](C)CO)cc2N2CCC3(CC2)CC3)nc(N2CCC(F)(F)CC2)n1`, 7.19; as for `Cc1cc(NC(=O)c2ccc(S(C)(=O)=O)cc2N2CCC3(CC2)CC3)nc(NC(C)(C)CO)n1`, 6.73.
